Target: T1, S15V-hP2X3R (Homo sapiens, UniProt P56373, S15V)
T1 construct: expressed in transfected cells; host or cells: Xenopus laevis oocytes (cRNA injection)
T1 sequence (P56373 1-397 S15V): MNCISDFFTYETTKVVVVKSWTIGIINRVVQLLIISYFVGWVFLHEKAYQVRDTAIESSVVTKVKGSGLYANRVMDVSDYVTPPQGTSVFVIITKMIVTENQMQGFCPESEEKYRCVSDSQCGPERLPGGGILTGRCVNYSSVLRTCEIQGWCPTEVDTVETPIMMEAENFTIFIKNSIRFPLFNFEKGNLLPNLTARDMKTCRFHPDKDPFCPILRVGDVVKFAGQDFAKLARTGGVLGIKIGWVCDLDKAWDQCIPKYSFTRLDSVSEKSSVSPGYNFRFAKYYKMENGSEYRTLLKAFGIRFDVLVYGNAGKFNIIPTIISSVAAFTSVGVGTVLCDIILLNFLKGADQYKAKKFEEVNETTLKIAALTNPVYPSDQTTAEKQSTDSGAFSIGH
Assay: TEVC of ATP-induced currents, S15V-hP2X3R expressed in X. laevis oocytes (peak current protocol)
Assay type: cell-based
Details: for IC50: 30-s preincubation of antagonist, X. laevis oocytes, −60 mV, geometric mean
Description: Oocyte expression plasmids encoding the wild-type (wt) and N-terminally His-tagged (His-) fusion constructs of the hP2X2R, hP2X3R, hP2X4R, and hP2X7R, and the mutant His-^20RMVL^23KVIV^23S^26N-hP2X1R, S^15V-rP2X3R, and His-S^15V-hP2X3R were the same as used in previous research ([Hausmann et al., 2006]; [Wolf et al., 2011]; [Hausmann et al., 2014]; [Obrecht et al., 2019]). In most cases, the N-terminal His-tagged variants of P2XRs were used here and in the previous studies to allow biochemical analyses on affinity-purified proteins using the same constructs. Although this was not required for the present study, it allows for better comparability with our previous studies. Capped cRNAs of different P2XRs were already available in the research group or were synthesized as previously described ([Schmalzing et al., 1991]; [Stolz et al., 2015]). cRNA was injected into collagenase-defolliculated X. laevis oocytes in aliquots of 41 nl or 23 nl (see Supplementary Table S1 for the amount of cRNA used for expression of the indicated P2XR) using a Nanoliter 2000 injector (World Precision Instruments, Sarasota, United States of America) as described previously ([Hausmann et al., 2014]; [Stolz et al., 2015]; [Obrecht et al., 2019]). To express the heteromeric hP2X2/3 receptor, cRNAs encoding His-hP2X2R and wt-hP2X3R were coinjected at a ratio (w/w) of 1:6. Oocytes were stored at 19°C in an oocyte ringer solution (ORi^+) containing 90 mM NaCl, 1 mM KCl, 1 mM CaCl2, 1 mM MgCl2, and 10 mM HEPES (Carl Roth, Karlsruhe, Germany) adjusted to pH 7.4 with NaOH and supplemented with 50 μg/ml gentamicin (AppliChem, Darmstadt, Germany). The procedures followed for the maintenance of and the surgical treatment for X. laevis adults were approved by the governmental animal care and use committee of the State Agency for Nature, Environment, and Consumer Protection (LANUV, Recklinghausen, Germany; reference no. 81-02.04.2019. A355), in compliance with Directive 2010/63/EU of the European Parliament and of the Council on the protection of animals used for scientific purpose.
Ion currents mediated by P2X receptors were evoked by the indicated concentration of ATP or α,β-meATP and were recorded 1 or 2 days after cRNA injection at ambient temperature at a holding potential of −60 mV by two-electrode voltage clamp (TEVC) as previously described ([Hausmann et al., 2006]). Calcium-free ORi^− solution (90 mM NaCl, 1 mM KCl, 2 mM MgCl2, 10 mM HEPES, pH 7.4) was used to avoid bias due to calcium-activated chloride channels (CaCC) endogenously expressed in X. laevis oocytes ([Miledi, 1982]; [Methfessel et al., 1986]). For recordings of wt-hP2X7R, the composition of the ORi^− solution was modified according to protocols described previously and contained 100 mM NaCl, 2.5 mM KCl, 1 mM MgCl2, 5 mM HEPES, pH 7.4 ([Klapperstück et al., 2000]). The oocytes were continuously superfused with ORi^− by gravity flow (5–10 ml/min). The agonists ATP or α,β-meATP and the investigated NSAIDs were diluted in ORi^− on the day of the recording. […] A peak current protocol (Supplementary Figure S1) was used to analyze fast- and intermediate desensitizing P2XR subtypes (P2X1R, P2X3R, and S^15V-P2X3R), and a steady-state protocol (Supplementary Figure S2) was used for slowly or partially desensitizing P2X subtypes (P2X2R, P2X2/3R, and P2X4R). For recordings of P2X7R, a modified steady-state protocol was used ([Hausmann et al., 2006]). The application of different bath solutions was controlled by computer-operated magnetic valves controlled by the CellWorks E 5.5.1 software (npi electronic, Tamm, Germany).
Antagonist concentration–response data and IC50 values were calculated by normalizing ATP-induced responses to the control responses (recorded in the presence and absence of the antagonist, respectively). […]

| IC50 (1 µM ATP) | inhibition at 1000 µM (1 mM antagonist, 1 µM ATP, mean ± SEM, read-out: Max. inhibition at 1 mM) | reversibility of the inhibitory effect by washout (subsequent control current after washout) | reduction of ATP-induced current amplitude at 100 µM antagonist (1 µM ATP) | Structure (SMILES) |
| --- | --- | --- | --- | --- |
| 32.4 µM | 53% | not reversible | – | Cc1c(Nc2ncccc2C(=O)O)cccc1C(F)(F)F [Flunixin, flunixin] |
| > 300 µM | – | – | 15%–18% | CC(C)Cc1ccc(C(C)C(=O)O)cc1 (stereo not drawn) [Ibuprofen, ibuprofen] |
| > 300 µM | – | – | 15%–18% | Cc1ccc(Cl)c(Nc2ccccc2C(=O)O)c1Cl [Meclofenamic acid, meclofenamic acid] |
| > 300 µM | – | – | 15%–18% | COc1ccc2cc([C@H](C)C(=O)O)ccc2c1 [Naproxen, naproxen] |
